Experimental data: patent US8022103B2, “Ester prodrugs of prostratin and related phorbol compounds” (Salvia Sciences, Inc., priority 2005, dated 2011)
Values after ≈ are worked out from the molar mass of the structure shown.

Key:
Hepatitis B Virus = assay: HepG2 2.2.15 antiviral assay (HBV DNA, TaqMan PCR); assay type: cell-based, Hepatitis B (HBV); settings: HepG2 2.2.15 cells
Protocol: Compounds SA-101A and SA-101B were evaluated for effect on Hepatitis B Virus replications using a cell culture based HBV replication system.
Compound preparation. The compounds were prepared in powder form (˜1 mg) and solubilized in DMSO prior to use. Compound 3TC was used as positive antiviral control.
HepG2 2.2.15 Antiviral Assay. The assay developed is similar to that described ion the literature (Korba et al., 1991, Antiviral Res. 15: 217-228; Korba et al., 1992, Antiviral Res. 19: 55-70) with the exception that viral DNA detection and quantification have been improved and simplified (Buckwold et al., 2004, Antiviral Res. 61(1): 57-62). Briefly, HepG2-2.2.15 cells are plated in 96-well microtiter plates. […] Six days following the initial administration of the test compound, the cell culture supernatant is collected, treated with pronase and DNAse and then used in a real-time quantitative TaqMan PCR assay. The PCR-amplified HBV DNA is detected in real-time by monitoring increases in fluorescence signals that result from the exonucleolytic degradation of a quenched fluorescent probe molecule that hybridizes to the amplified HBV DNA. […] Antiviral activity is calculated from the reduction in HBV DNA levels (IC50). […] The therapeutic index (TI) is calculated as TC50/IC50.

[1] = test system: HIV-1 isolates Ba-L and IIIB and the SIV isolate mac251; assay: PBMC-based assay, summary over all three isolates; assay type: cell-based; settings: read-out: IC50 values against all three isolates
Protocol: Compounds SA-101A and SA-101B were tested for antiviral activity against HIV-1 in peripheral blood mononuclear cells (PBMC) acutely infected with the HIV-1 isolates. PBMCs were derived from normal HIV-1 negative donors, and cultured under conditions which promote cell survival and HIV replication. Fresh human blood was obtained commercially from Biological Specialty Corporation (Colmar, Pa.). The low passage clinical isolates HIV-1Ba-L, HIVIIIB, and SIVmac251 were from the NIAID AIDS Research and Reference Reagent Program. Immediately before use, pre-titered aliquot of the viruses were removed from storage in a freezer (−80° C.) and thawed rapidly to room temperature in a biological safety cabinet. Phytohemagglutinin (PHA-P) was obtained from Sigma (St. Louis, Mo.) and recombinant IL-2 was obtained from R&D Systems Inc. (Minneapolis, Minn.). […]
PMBC assay. […] Pooling (mixing) of mononuclear cells from more than one donor is used to minimize the variability observed between individual donors, which results from quantitative and qualitative differences in HIV infection and overall response to the PHA and IL-2 of primary lymphocyte populations. […]

Compound	EC50 (inhibition of HBV) (Hepatitis B Virus)	IC50 [1]
CC(=O)OC12CC(C)C3(O)C(C=C(COC(=O)CCC(=O)O)CC4(O)C(=O)C(C)=CC43)C1C2(C)C (stereo not drawn) [SA-101B, Prostratin Succinate]	did not achieve EC50 values	
CC(=O)O[C@@]12C[C@@H](C)[C@@]3(O)[C@@H](C=C(CO)C[C@]4(O)C(=O)C(C)=C[C@@H]34)[C@@H]1C2(C)C [SA-101A, 12-deoxyphorbol 13-acetate]	did not achieve EC50 values	0.05 to 0.39 µg/mL (≈ 0.128 to 0.999 µM)
